Test results from patent US20250099474A1 (priority 2022, published 2025).

Tested on: SARS-CoV-2
Test: Phase 2/3 study, Phase 2b Part: SARS-CoV-2 virus titer on Day 4
Assay type: in vivo, human
Details: for Change from baseline in SARS-CoV-2 virus titer on Day 4: Adjusted mean value by covariance analysis (standard error) / Change from baseline in SARS-CoV-2 virus titer on Day 4: Difference of adjusted mean value from that of placebo group (standard error) / Change from baseline in SARS-CoV-2 virus titer on Day 4: Maximum value / Change from baseline in SARS-CoV-2 virus titer on Day 4: Mean value / Change from baseline in SARS-CoV-2 virus titer on Day 4: Median value / Change from baseline in SARS-CoV-2 virus titer on Day 4: Minimum value: mild/moderate patients, ITT1 population
Procedure: The primary endpoints of Phase 2b Part were the time-weighted average change in the total score of 12 COVID-19 symptoms per unit time from the start of the first administration (Day 1) to 120 hours (Day 6), and the change from baseline in SARS-CoV-2 virus titer on Day 4, in mild/moderate SARS-CoV-2-infected patients, and the clinical improvement and the antiviral effect of the active drug were confirmed.
The administration of the active drug is repeated oral administration once a day for 5 days. The 375/125 mg group received 375 mg on Day 1 as a loading dose and 125 mg on Days 2 to 5 as a maintenance dose. The 750/250 mg group received 750 mg on Day 1 as a loading dose and 250 mg on Days 2 to 5 as a maintenance dose.
The primary efficacy endpoints of Phase 2b Part for mild/moderate SARS-CoV-2-infected patients were the time-weighted average change in the total score of 12 COVID-19 symptoms per unit time from the start of the first administration (Day 1) to 120 hours (Day 6), and the change from baseline in SARS-CoV-2 virus titer on Day 4. The total score of 12 COVID-19 symptoms is the sum of the scores determined by evaluation in four grades (0: none, 1: mild, 2: moderate, 3: severe) in the subject daily records for each of the 12 COVID-19 symptoms (low energy and tiredness, muscle or body aches, headache, chills or shivering, feeling hot or feverish, stuffy and runny nose, sore throat, cough, shortness of breath (difficulty breathing), nausea, vomiting, diarrhea).
Pairwise comparison was performed between each active drug dose group and the placebo group. […] Pairwise comparison was performed between each active drug dose group and the placebo group.

Cn1cnc(Cn2c(=O)[nH]/c(=N\c3cc4cn(C)nc4cc3Cl)n(Cc3cc(F)c(F)cc3F)c2=O)n1 [(6E)-6-[(6-chloro-2-methyl-2H-indazol-5-yl)imino]-3-[(1-methyl-1H-1,2,4-triazol-3-yl)methyl]-1-[(2,4,5-trifluorophenyl)methyl]-1,3,5-triazinane-2,4-dione]
Proportion of patients with a positive virus titer of 1.1 or more on Day 4 (375/125 mg group): 1.9% | SARS-CoV-2 virus titer on Day 4 as compared with the placebo group (375/125 mg group and 750/250 mg group, p<0.0001): statistically significantly reduced | Proportion of patients with a positive virus titer of 1.1 or more on Day 4 (750/250 mg group): 5.4% | Change from baseline in SARS-CoV-2 virus titer on Day 4: Adjusted mean value by covariance analysis (standard error) (375/125 mg group): −1.49 (0.04) | Change from baseline in SARS-CoV-2 virus titer on Day 4: Difference of adjusted mean value from that of placebo group (standard error) (375/125 mg group): −0.41 (0.05) | Change from baseline in SARS-CoV-2 virus titer on Day 4: Maximum value (375/125 mg group): 0.0 | Change from baseline in SARS-CoV-2 virus titer on Day 4: Mean value (375/125 mg group): −1.69 | Change from baseline in SARS-CoV-2 virus titer on Day 4: Median value (375/125 mg group): −1.70 | Change from baseline in SARS-CoV-2 virus titer on Day 4: Minimum value (375/125 mg group): −3.7 | Change from baseline in SARS-CoV-2 virus titer on Day 4: Adjusted mean value by covariance analysis (standard error) (750/250 mg group): −1.49 (0.04) | Change from baseline in SARS-CoV-2 virus titer on Day 4: Difference of adjusted mean value from that of placebo group (standard error) (750/250 mg group): −0.41 (0.05) | Change from baseline in SARS-CoV-2 virus titer on Day 4: Maximum value (750/250 mg group): 0.0 | Change from baseline in SARS-CoV-2 virus titer on Day 4: Mean value (750/250 mg group): −1.43 | Change from baseline in SARS-CoV-2 virus titer on Day 4: Median value (750/250 mg group): −1.40 | Change from baseline in SARS-CoV-2 virus titer on Day 4: Minimum value (750/250 mg group): −3.4
